For one data set, the system named is influenza virus B/GL. Description: animal or person. In kind it is in vivo, mice. To be noted: for survival rates of the treated groups as compared with the control: result in words, Table 7.
A further data set relates to coxsackie virus B1. Also on record: species or system mice. To be noted: mouse, in vivo, po.
The subject of data set [1] is parainfluenza virus type 3. Details: species or system mice. To be noted: mouse, in vivo, po.
The nature of data set [2]: Acute toxicity in mice (LD50). In kind it is in vivo. To be noted: ddY male mice, suspended in 5% Arabic gum solution, observed for 7 days; for LD50 at 168 h: mouse, in vivo. The protocol:
Experimental Example 7: Acute Toxicity in Mice
Each compound of the invention was suspended in 5% Arabic gum solution and given orally (p.o.) or intraperitoneally (i.p.) to groups of ten ddY male mice weighed from 24 to 26 g at the dosage volume of 10 ml/kg. […] LD50 was determined according to the method of Wilcoxon and Litchfield.

Another data set concerns influenza virus A/WSN. Description: animal or person. In kind it is in vivo, mice. To be noted: in Mus musculus, 360 h, read-out: Survival rate.
Setting [3] is: unidentified influenza virus, in Mus musculus, po, 360 h, read-out: Survival rate.
The mark [4] stands for this setting: ip, i.p., read-out: LD50 value, Intraperitoneal administration.
The mark [5] stands for this setting: po, p.o., read-out: LD50 value, Oral administration.

Read-outs that look alike come from different tables or passages of the source. A value given as a limit tells only on which side of the number the result lay.

As to `CCCCOC(=O)c1ccc(Br)c(S(N)(=O)=O)c1` [Compound 30], in the data set on influenza virus B/GL, the “survival rates of the treated groups as compared with the control” value (“survival rates … compared with the control” below) is reported as “extremely excellent activity”. Moreover, the responders at 30 mg/kg with influenza virus B/GL (setting [3]) turned out to be 60%. Besides, the responders at 300 mg/kg in the data set on influenza virus B/GL (setting [3]) is 70%. The Survival rate in the data set with coxsackie virus B1 (300 mg/kg) is reported as 40%; in the data set with coxsackie virus B1 (1000 mg/kg), 70%; in data set [1] (30 mg/kg), 40%; in data set [1] (100 mg/kg), 60%. In addition, the “LD50 value, Intraperitoneal administration” value in data set [2] (i.p.) was >1,000 mg/kg. In addition, the “LD50 value, Oral administration” value in data set [2] (p.o.) is given as >3,000 mg/kg.

Turning to `CCCCOC(=O)c1cc(S(N)(=O)=O)c(Cl)cc1Cl` [Compound 35], the responders at 30 mg/kg with influenza virus A/WSN (po) and in the data set on influenza virus B/GL (setting [3]) was 40% throughout. Further, the responders at 100 mg/kg in the data set on influenza virus A/WSN (po) and in the data set on influenza virus B/GL (setting [3]) was 60% each time. For the same molecule, in the data set with influenza virus B/GL, the “survival rates … compared with the control” value is recorded as “extremely excellent activity”. The Survival rate in the data set with coxsackie virus B1 (300 mg/kg) is listed as 40%; in the data set on coxsackie virus B1 (1000 mg/kg) it was 80%; in data set [1] (30 mg/kg), 30%; in data set [1] (100 mg/kg) it was 60%. Also, the LD50 at 168 h in data set [2] (setting [4]) was over 1000 mg/kg; in data set [2] (setting [5]), over 3000 mg/kg.

For the molecule `CCCCCCCCOC(=O)c1cc(S(N)(=O)=O)c(Cl)cc1Cl` [Compound 37], in the data set with influenza virus A/WSN, the responders at 10 mg/kg was determined as 50%. The results for the responders at 30 mg/kg in the data set with influenza virus A/WSN (ip), in the data set with influenza virus A/WSN (po) and in the data set with influenza virus B/GL (setting [3]) were 60%, 50% and 50%, respectively. Moreover, the responders at 100 mg/kg in the data set on influenza virus A/WSN (po) was 70%; in the data set with influenza virus B/GL (setting [3]) it was 80%. Further, in the data set with influenza virus B/GL, the “survival rates … compared with the control” value is recorded as “extremely excellent activity”. In addition, the Survival rate in the data set with coxsackie virus B1 (300 mg/kg) was 50%; with coxsackie virus B1 (1000 mg/kg), 80%; in data set [1] (30 mg/kg) it was 40%; in data set [1] (100 mg/kg) it was 70%. In addition, the values for the LD50 at 168 h in data set [2] (setting [4]) and in data set [2] (setting [5]) were over 1000 mg/kg and over 3000 mg/kg, respectively.

(Values after EP0068408A1 (priority 1981, dated 1983).)
